Columns and labels:
MNNGHOS tumor xenograft = assay: In vivo solid tumor disease model, MNNGHOS tumor xenograft; settings: MNNGHOS xenograft in mice, dosed orally at 40 mg/kg in PEG 400/0.1 N HCl in saline (40:60)
From the text: In Vivo Solid Tumor Disease Model
This test measures the capacity of compounds to inhibit solid tumor growth.
Tumor xenografts are established in the flank of female athymic CDl mice (Charles River Inc.), by subcutaneous injection of 1X10^6 cells/mouse. Once established, tumors are then serially passaged s.c. in nude mice hosts. Tumor fragments from these host animals are used in subsequent compound evaluation experiments. For compound evaluation experiments female nude mice weighing approximately 20 g are implanted s.c. by surgical implantation with tumor fragments of 30 mg from donor tumors. When the tumors are approximately 100 mm^3 in size (˜7-10 days following implantation), the animals are randomized and separated into treatment and control groups. Each group contains 6-8 tumor-bearing mice, each of which is ear-tagged and followed individually throughout the experiment.
Mice are weighed and tumor measurements are taken by calipers three times weekly, starting on Day 1. These tumor measurements are converted to tumor volume by the well-known formula […]. The experiment is terminated when the control tumors reach a size of approximately 1500 mm^3. […] In addition to tumor volumes, body weight of animals is monitored twice weekly for up to 3 weeks. […]

DU145 = DU145 scattering inhibition; settings: Homo sapiens, DU-145, read-out: Potency in cell-based assays DU145 scattering inhibition

With `COc1cc2nccc(Oc3ccc(NC(=O)N4CCN(c5ccccc5)C4=O)cc3F)c2cc1OC` [Example 2, N-(4-(6,7-Dimethoxyquinolin-4-yloxy)-3-fluorophenyl)-2-oxo-3-phenylimidazolidine-1-carboxamide] the effect on tumors (MNNGHOS tumor xenograft) was “full regression of the tumors”, the tumor growth inhibition (MNNGHOS tumor xenograft) was 112% and the IC50 (DU145) was 400 nM.

— patent US20080004273A1, “Inhibitors of protein tyrosine kinase activity” (priority 2006, published 2008)
